We go through three compounds from ChEMBL document CHEMBL3526079, “Glutaredoxin is involved in the formation of the pharmacologically active metabolite of clopidogrel from its GSH conjugate” (Drug Metab Dispos, 2012).

The test system of series [1] is Liver cytosol. Kind of series: Drug metabolism in human liver cytosol assessed as (E)-2-(1-((S)-1-(2-chlorophenyl)-2-methoxy-2-oxoethyl)-4-mercaptopiperidin-3-ylidene)acetic acid formation at 1 uM for 2.5 mins by LC-MS/MS analysis in presence of 5 mM GSH and 19 to 300 ug/ml anti-human glutaredoxin antibody. Format: ADME.
Series [2] is described as follows: Activity of human recombinant glutaredoxin assessed as enzyme-mediated (E)-2-(1-((S)-1-(2-chlorophenyl)-2-methoxy-2-oxoethyl)-4-mercaptopiperidin-3-ylidene)acetic acid formation at 1 uM for 2.5 mins by LC-MS/MS analysis in presence of 5 mM GSH and 19 to 300 ug/ml anti-human glutaredoxin antibody. The class given is ADME.
Series [3] in a line: Activity of human recombinant glutaredoxin assessed as enzyme-mediated (E)-2-(1-((S)-1-(2-chlorophenyl)-2-methoxy-2-oxoethyl)-4-mercaptopiperidin-3-ylidene)acetic acid formation. Format: ADME.
Series [4] can be described thus: Activity of human recombinant glutaredoxin assessed as enzyme-mediated (E)-2-(1-((S)-1-(2-chlorophenyl)-2-methoxy-2-oxoethyl)-4-mercaptopiperidin-3-ylidene)acetic acid formation per ug of protein. Format: ADME.
Series [5] in a line: Activity of human recombinant glutaredoxin assessed as intrinsic clearance of enzyme-mediated (E)-2-(1-((S)-1-(2-chlorophenyl)-2-methoxy-2-oxoethyl)-4-mercaptopiperidin-3-ylidene)acetic acid formation per ug of protein. Format: ADME.
Series [6] can be described thus: Activity of human recombinant glutaredoxin assessed as intrinsic clearance of enzyme-mediated (E)-2-(1-((S)-1-(2-chlorophenyl)-2-methoxy-2-oxoethyl)-4-mercaptopiperidin-3-ylidene)acetic acid formation per pmol of protein. The class given is ADME.
Series [7] concerns Liver microsome. Kind of series: Drug level in human liver microsome assessed as compound formation treated with R-115991 at 5 uM by LC-MS/MS analysis in presence of 5 mM GSH. The class given is ADME. As to conditions: microsomes. (Microsomes from liver hold many membrane-bound enzymes, among them those of drug oxidation.)
Series [8] has as its system Liver microsome. Kind of series: Drug metabolism in human liver microsome assessed as (E)-2-(1-((S)-1-(2-chlorophenyl)-2-methoxy-2-oxoethyl)-4-mercaptopiperidin-3-ylidene)acetic acid formation at 1 uM for 2.5 mins by LC-MS/MS analysis in presence of 5 mM GSH and 19 to 300 ug/ml anti-human glutaredoxin antibody. Format: ADME. As to conditions: microsomes.
In series [9] the test system is Liver microsome. Kind of series: Drug level in human liver microsome assessed as compound formation rate measured per mg of protein treated with 1 uM R-361015-SG for 2.5 mins by LC-MS/MS analysis in presence of 5 mM GSH. The class given is ADME. The note with it: microsomes.
Series [10] has as its system Liver cytosol. Kind of series: Drug level in human liver cytosol assessed as compound formation rate measured per mg of protein treated with 1 uM R-361015-SG for 2.5 mins by LC-MS/MS analysis in presence of 5 mM GSH. Format: ADME, tissue-based.
The nature of series [11]: Activity of human recombinant glutaredoxin assessed as enzyme-mediated compound formation rate measured per ug of enzyme at 1 uM for 2.5 mins by LC-MS/MS analysis in presence of 5 mM GSH. Format: ADME.
The test system of series [12] is Liver microsome. Kind of series: Drug metabolism in human liver microsome assessed as (2S)-2-amino-5-((2R)-1-(carboxymethylamino)-3-(((E)-3-(carboxymethylene)-1-((S)-1-(2-chlorophenyl)-2-methoxy-2-oxoethyl)piperidin-4-yl)disulfanyl)-1-oxopropan-2-ylamino)-5-oxopentanoic acid formation at 5 uM by LC-MS/MS analysis in presence of 5 mM GSH. Format: ADME. As to conditions: microsomes.

Series [13] deals with Liver microsome. Kind of series: Drug metabolism in human liver microsome assessed as (E)-2-(1-((S)-1-(2-chlorophenyl)-2-methoxy-2-oxoethyl)-4-mercaptopiperidin-3-ylidene)acetic acid formation at 5 uM by LC-MS/MS analysis in presence of 5 mM GSH. The class given is ADME. As to conditions: microsomes.
Series [14] has as its system Liver microsome. Kind of series: Drug metabolism in human liver microsome assessed as (2S)-2-amino-5-((2R)-1-(carboxymethylamino)-3-(((E)-3-(carboxymethylene)-1-((S)-1-(2-chlorophenyl)-2-methoxy-2-oxoethyl)piperidin-4-yl)disulfanyl)-1-oxopropan-2-ylamino)-5-oxopentanoic acid formation at 5 uM by LC-MS/MS analysis in presence of 5 mM GSH and 1 mg/ml human liver cytosol. The class given is ADME. As to conditions: microsomes.

With `COC(=O)[C@H](c1ccccc1Cl)N1CCC(SSC[C@H](NC(=O)CC[C@H](N)C(=O)O)C(=O)NCC(=O)O)/C(=C/C(=O)O)C1` (stereo not given in full), the Drug metabolism result with Liver cytosol [1] was “metabolite_not_detected”; in [2], “metabolite_not_detected”; in the series with Liver microsome [7] it was “metabolite_detected”; in the series with Liver microsome [8], “metabolite_not_detected”. Moreover, in series [3], the Km (in general, the concentration of substrate that gives half-maximal velocity) stood at 30 µM. Also, the Vmax (commonly the top rate of the reaction or transport when substrate is in excess) in series [4] was 381.6 pmol/min. In series [5], the clearance is 12.9 µL/min/µg. Moreover, in [6], the CL turned out to be 0.1548 µL/min.

Consider `COC(=O)[C@H](c1ccccc1Cl)N1CCC(S)/C(=C/C(=O)O)C1` (stereo not given in full), for which the Drug metabolism entry with Liver microsome [7] was “metabolite_detected”; in the series on Liver microsome [9], 508 pmol/min; in the series with Liver cytosol [10] it was 2843 pmol/min; in series [11], 130 pmol/min.

`COC(=O)[C@H](c1ccccc1Cl)N1CCC2SC(=O)C=C2C1` (stereo not given in full) [CLOPIDOGREL THIOLACTONE]: the Drug metabolism result in the series on Liver microsome [12] is “metabolite_detected”; in the series on Liver microsome [13], “metabolite_detected”; with Liver microsome [14] it was “metabolite_not_detected”.
